Results published in article PMC6177136, “Hybrid topoisomerase I and HDAC inhibitors as dual action anticancer agents” (PLoS ONE, 2018).

Key:
RAMOS = assay: Cytotoxicity assay (MTT, 72 h) RAMOS; format: cell-based; details: Homo sapiens, read-out: IC50 ± SD RAMOS
A431 = assay: Cytotoxicity assay (SRB, 72 h) A431; format: cell-based, Human; details: Homo sapiens, A-431, read-out: IC50 ± SD A431
MM472 = assay: Cytotoxicity assay, primary mesothelioma MM472; format: cell-based, Human; details: Homo sapiens; sarcomatoid, 72 h, SBR assay; read-out: IC50 ± SD MM472
JECO-1 = assay: Cytotoxicity assay (MTT, 72 h) JECO-1; format: cell-based, Human; details: Homo sapiens; 72 h, MTT assay; read-out: IC50 ± SD JECO-1
A2780-Dx = assay: Cytotoxicity assay (SRB, 72 h) A2780-Dx; format: cell-based, Human
[1] = mouse, in vivo, iv, 45 mg/kg
HeLa = assay: Cytotoxicity assay (SRB, 72 h) HeLa; format: cell-based, Human; details: Homo sapiens, HeLa, read-out: IC50 ± SD HeLa
MM404 = assay: Cytotoxicity assay, primary mesothelioma MM404; format: cell-based, Human; details: Homo sapiens; epithelioid, 72 h, SBR assay; read-out: IC50 ± SD MM404
THP1 = assay: Cytotoxicity assay (MTT, 72 h) THP1; format: cell-based; details: Homo sapiens, THP-1, read-out: IC50 ± SD THP1
OCI-LY3 = assay: Cytotoxicity assay (MTT, 72 h) OCI-LY3; format: cell-based, Human; details: Homo sapiens, OCI-Ly3; 72 h, MTT assay; read-out: IC50 ± SD OCI-LY3
Method: (§1) Human tumor cells were seeded in 96-well cell culture plastic plates, allowed to attach, and exposed to scalar concentrations of the test compounds.

MINO = assay: Cytotoxicity assay (MTT, 72 h) MINO; format: cell-based, Human; details: Homo sapiens, MINO; 72 h, MTT assay; read-out: IC50 ± SD MINO
MM317 = assay: Cytotoxicity assay, primary mesothelioma MM317; format: cell-based, Human; details: Homo sapiens; epithelioid, 72 h, SBR assay; read-out: IC50 ± SD MM317
H929 = assay: Cytotoxicity assay (MTT, 72 h) H929; format: cell-based; details: Homo sapiens, NCI-H929, read-out: IC50 ± SD H929
RAJI = assay: Cytotoxicity assay (MTT, 72 h) RAJI; format: cell-based; details: Homo sapiens, read-out: IC50 ± SD RAJI
[2] = test system: hematologic cancer cell lines; assay: Screening on hematologic cancer cell lines (summary); format: cell-based; details: Homo sapiens, read-out: IC50 across hematologic cancer cell lines (Tables 5 and 6); span over the cell line panel, 72 h, MTT assay
ARH-77 = assay: Cytotoxicity assay (MTT, 72 h) ARH-77; format: cell-based; details: Homo sapiens, read-out: IC50 ± SD ARH-77
p53 = assay: Western blot, p53 in NCI-H460 cells; format: cell-based, Human; details: 24 h; SAHA 5 μM, SN38 0.05 μM, 3d 0.125–0.2–0.5 μM
Method: (§2) The supernatant, containing the total proteins extracts, were transferred in new vials. The protein concentration was measured by Bradford Protein Assay. Equal amounts of proteins for each sample were then resolved by SDS-PAGE and loaded on 10–12% polyacrilamide gels. The proteins were then transferred on nitrocellulose membranes. Molecular weights were estimated based upon the relative migration with molecular weight protein markers.
(§3) The non-specific binding was blocked by incubation of membranes in TBS-tween (25 mM Tris, 150 mM NaCl, 0.1% Tween 20) with 5% nonfat dry milk (BIORAD, Milan) for 60 minutes. Subsequently, the membrane was incubated overnight with primary antibodies: anti-Histone H4 (Millipore, 1:500), anti-acetyl-H4 (Santa Cruz, 1:1000) anti-p21 (Santa Cruz, 1:1000), anti-acetyl-tubulin (abcam, 1:1000), anti-α-tubulin (Sigma, 1:5000), anti β-actin (Sigma, 1:5000) and anti-Topoisomerase 1 (Santa Cruz, 1:500). After three washes with TBST blots were incubated with HRP-coniugated secondary anti-mouse and anti-rabbit (Santa Cruz, 1:5000) 1 hour at room temperature. After three washes with TBST the blots were developed with ECL substrate (GE Healthcare) and chemiluminescence detected by ChemiDoc Imaging System (Biorad). The optical density of the protein bands detected by western blotting was normalized on α -tubulin levels and analyzed by ChemiDoc software (Biorad).
Cells were lysed in 0.5% NP-40 and 40 μg of total proteins were loaded on NuPAGE 4–12% (Invitrogen), transferred to a nitrocellulose paper and probed with specific antibodies.

U-2932 = assay: Cytotoxicity assay (MTT, 72 h) U-2932; format: cell-based, Human; details: Homo sapiens, U2932, read-out: IC50 ± SD U-2932
Jurkat-cp = assay: Cytotoxicity assay (MTT, 72 h) Jurkat-cp; format: cell-based; details: Homo sapiens, read-out: IC50 ± SD Jurkat-cp
DU145 = assay: Cytotoxicity assay (SRB, 72 h) DU145; format: cell-based, Human; details: Homo sapiens, DU-145, read-out: IC50 ± SD DU145
MM288 = assay: Cytotoxicity assay, primary mesothelioma MM288; format: cell-based, Human; details: Homo sapiens; epithelioid, 72 h, SBR assay; read-out: IC50 ± SD MM288
Acetylated Histone H4 = assay: Western blot, acetylation of histone H4 in NCI-H460 cells; format: cell-based, Human; details: 24 h; SN38 0.05 μM, SAHA 5 μM, 3b and 3d 0.125–0.2–0.5 μM
Method: as §2
as §3, with “software (Biorad). […]” for “software (Biorad).”

REC-1 = assay: Cytotoxicity assay (MTT, 72 h) REC-1; format: cell-based; details: Homo sapiens, Rec1, read-out: IC50 ± SD REC-1
RPMI-8226 = assay: Cytotoxicity assay (MTT, 72 h) RPMI-8226; format: cell-based; details: Homo sapiens, read-out: IC50 ± SD RPMI-8226
Method: as §1

MV4-11 = assay: Cytotoxicity assay (MTT, 72 h) MV4-11; format: cell-based; details: Homo sapiens, read-out: IC50 ± SD MV4-11
KM-H2 = assay: Cytotoxicity assay (MTT, 72 h) KM-H2; format: cell-based, Human; details: Homo sapiens, KM-H2; 72 h, MTT assay; read-out: IC50 ± SD KM-H2
[3] = test system: series of human tumor cell lines; assay: Antiproliferative activity, series of human tumor cell lines (summary); format: cell-based; details: span over the cell line panel, 72 h, SRB assay, read-out: IC50 across the human tumor cell lines of Table 3

Work on CC[C@@]1(O)C(=O)OCc2c1cc1n(c2=O)Cc2c-1nc1ccc(O)cc1c2C=NOCCCCCC(=O)NO [Compound 3d, 6-(10-hydroxycamptothecin-7-ylmethyleneaminooxy)-hexanoic acid hydroxyamide] yielded an IC50 (RAMOS) of 990 ± 100 nM, an IC50 (A431) of 140 ± 20 nM and an IC50 (MM472) of 48 ± 10 nM. The IC50 (JECO-1) was 23 ± 6 nM, the “RI (Resistance Index)” value (A2780-Dx; A2780-Dx versus A2780) was 6.6 and the IC50 (A2780-Dx; Homo sapiens, A2780/DX, 72 h, SRB assay, multidrug-resistant ovarian carcinoma, read-out: IC50 ± SD A2780-Dx) was 1800 ± 400 nM. The body weight [1] was “no reduction in body weight was observed”, the IC50 (HeLa) was 180 ± 50 nM and the IC50 (MM404) was 1400 ± 300 nM. It also gave an IC50 (THP1) of 220 ± 90 nM, an IC50 (OCI-LY3) of 18 ± 5 nM and an IC50 (MINO) of 31 ± 10 nM. It also gave an IC50 (MM317) of 850 ± 200 nM, an IC50 (H929) of 1100 ± 400 nM and an IC50 (RAJI) of 77 ± 20 nM. The IC50 [2] was 6 to 4000 nM, the IC50 (ARH-77) was 210 ± 60 nM and the p53 activation (p53) was “induced p53 activation”. For the same molecule, the IC50 (U-2932) was 44 ± 10 nM, the IC50 (Jurkat-cp) was 230 ± 50 nM and the IC50 (DU145) was 70 ± 3 nM. For the same molecule, the IC50 (MM288) was 480 ± 100 nM, the “accumulation of acetylated histone H4” value (Acetylated Histone H4) was “H4 and tubulin acetylation in a dose dependent manner” and the IC50 (REC-1) was 180 ± 40 nM. The IC50 (RPMI-8226) was 4100 ± 1400 nM, the IC50 (MV4-11) was 2730 ± 300 nM and the IC50 (KM-H2) was 390 ± 100 nM. It also gave an IC50 [3] of 30 to 400 nM.
